Experimental data taken from patent EP2265599B1, “CRYSTAL FORM OF PHENYLAMINOPYRIMIDINE DERIVATIVE” (Natco Pharma Limited, priority 2008, dated 2009).

Columns and labels:
[1] = test system: Baf3M351T; assay: In vivo anti-leukemic activity, blast cell count in blood smears, Baf3M351T implanted nude mice; conditions: Imatinib 10mg/kg, AN019 20mg/kg, AN024 20mg/kg, oral gavage or ip from day 15; up to day 42
From the text: (§1) Blood smears were obtained via the tail vein or via the femoral vein every 6th day and blast cells counted and graphically represented.
(§2) Abdominal swelling and decrease in activity was monitored daily, blood smear taken via the tail vein or the femoral vein every 6th day and H&E stained as per standard protocols. 42 days after implantation, mice were sacrificed and spleens harvested.
(§3) Nude mice were intraperitoneally implanted with Baf3 mutant cells (wt, T315I, M351T or E255K). […] Blood was drawn from the femoral vein or tail vein every 6th day and blast cell count determined and graphically represented.

[2] = test system: U87; assay: Matrigel invasion assay (modified Boyden chamber), U87; format: cell-based; conditions: cells treated 48 h
Description: (§4) The in vitro invasiveness of 4910, 5310 and U87 glioma cells and MDAMB231 and ZR71 breast cancer cells in the presence of specified concentrations of compounds were assessed using a modified Boyden chamber assay. Cells were treated with these compounds for 48 h. 1x10^6 cells were suspended in 600µl of serum-free medium supplemented with 0.2% BSA and placed in the upper compartment of the transwell chambers (Coming Costar Fischer Scientific Cat #07-200-158, Pittsburgh PA) coated with Matrigel (0.7 mg/ml). The lower compartment of the chamber was filled with 200 µl of serum medium and the cells were allowed to migrate for 24 h. After incubation, the cells were fixed and stained with Hema-3 and quantified as previously described (Mohanam et al. 1993). The migrated cells were imaged microscopically to determine the reduction in invasiveness induced by the compounds of this invention.
(§5) The in vitro invasiveness of 4910, 5310 and U87 glioma cells and MDAMB231 and ZR71 breast cancer cells in the presence of specified concentrations of compounds were assessed using a modified Boyden chamber assay. Cells were treated with these compounds for 48 h.

[3] = test system: Baf3T315I; assay: In vivo anti-leukemic activity, blast cell count in blood smears, Baf3T315I implanted nude mice; conditions: Imatinib 10mg/kg, AN019 20mg/kg, AN024 20mg/kg, oral gavage or ip from day 15; up to day 42
From the text: as §1, §2, §3

[4] = test system: ZR71; assay: Western blot analysis for AKT, ERK and Pi3k, ZR71; format: cell-based
Description: (§6) Western blot analysis of 4910, 5310 and U87 glioma cells and MDAMB231 and ZR71 breast cancer cells in the presence of specified concentrations of compounds were assessed as per standard protocols. Cells were treated with AN019, AN024 or Temozolomide at the specified concentrations. 24h after treatment, cells were collected and cell lysates extracted. Equal quantities of proteins were fractionated by SDS-PAGE. The fractionated proteins were blotted on to nylon membranes and immunoprobed for AKT, ERK and Pi3k. Breast cancer cell protein isolates were additionally immunoprobed for EGFR, ErbB1, ErbB2 and ErbB3.

[5] = test system: Baf3E255K; assay: In vivo anti-leukemic activity, blast cell count in blood smears, Baf3E255K implanted nude mice; conditions: Imatinib 10mg/kg, AN019 20mg/kg, AN024 20mg/kg, oral gavage or ip from day 15; up to day 42
From the text: as §1, §2, §3

[6] = test system: 4910 human glioma xenograft cells; assay: Glioma radiation study, intracranially implanted 4910 cells; format: in vivo, Nude mice
Description: Nude mice were intracranially implanted with 4910 human glioma xenograft cells (1x10^6 cells). Ten days after implantation mice were treated with AN019, AN024 or temozolomide with or without radiation (5Gy/week). The experiment was terminated at day 40 post implantation.

[7] = test system: ZR-71; assay: Matrigel invasion assay (modified Boyden chamber), ZR-71; format: cell-based; conditions: cells treated 48 h
Description: as §4, §5

[8] = test system: 4910 cells; assay: Western blot analysis for AKT, ERK and Pi3k, 4910; format: cell-based, human; conditions: decrease enhanced after radiation
Description: as §6

[9] = test system: K5621uc cells; assay: Drug temporal penetrance (Tp) after stopping drug treatment; format: in vivo, nude mice; conditions: AN019 20mg/kg, AN024 20mg/kg, Imatinib 10mg/kg, daily ip from day 15, stopped on day 35, imaged till day 45
Description: The temporal penetrance was calculated applying the following equation, Tp=. (((P)/(n))a -((P)/(n))ter)/(((P)/(n))a -((P)/(n))b) [formula]
Where: • P=photon counts at day 'a', day 'ter', or day 'b' where 'a' is the day when drug treatment was stopped and 'ter' is the day when the experiment was terminated and 'b' is the day where P is minimum after day a but before day 'ter'. • n=number of animals alive when P was measured.
The animals were imaged at 6 day intervals post transplantation. […] Drug treatment was stopped on day 35 and animals were imaged till day 45, and calculated as described in methods.

[10] = test system: MDA-MB-231; assay: Matrigel invasion assay (modified Boyden chamber), MDA-MB-231; format: cell-based; conditions: cells treated 48 h
Description: as §4, §5

[11] = test system: 5310; assay: Matrigel invasion assay (modified Boyden chamber), 5310; format: cell-based; conditions: cells treated 48 h
Description: as §4, §5

[12] = test system: U87 glioma cells; assay: In vitro angiogenic assay (conditioned media on human dermal endothelial cells), U87; format: cell-based; conditions: with and without radiation
Description: (§7) The in vitro angiogenesis of 4910, 5310 and U87 glioma cells and MDAMB231 and ZR71 breast cancer cells in the presence of specified concentrations of compounds were determined as follows, cells (2x10^4/well) were seeded in 8-well chamber slides and were treated with various concentrations of test compounds. After a 24 h incubation period, the conditioned media was removed and added to a 4x 10^4 human dermal endothelial cell (monolayer in 8-well chamber slides) and the human dermal endothelial cells were allowed to grow for 72 h. Cells were then fixed in 3.7% formaldehyde and stained with H&E and photographed.

[13] = test system: Glioma xenograft cells 4910; assay: In vitro angiogenic assay (conditioned media on human dermal endothelial cells), 4910; format: cell-based; conditions: 4910 cells, with and without radiation
Description: as §7

[14] = test system: U87 cells; assay: Western blot analysis for AKT, ERK and Pi3k, U87; format: cell-based; conditions: decrease was enhanced after radiation
Description: as §6

[15] = test system: 4910; assay: Matrigel invasion assay (modified Boyden chamber), 4910; format: cell-based, human; conditions: cells treated 48 h
Description: as §4, §5

[16] = test system: ZR-71 cells; assay: In vitro angiogenic assay (conditioned media on human dermal endothelial cells), ZR-71; format: cell-based
Description: as §7

[17] = test system: MDA-MB-231 cells; assay: In vitro angiogenic assay (conditioned media on human dermal endothelial cells), MDA-MB-231; format: cell-based; conditions: control condition and after radiation
Description: as §7

[18] = test system: K562; assay: ED50 (po) and therapeutic index in leukemic mice (K562)
[19] = test system: 5310 cells; assay: In vitro angiogenic assay (conditioned media on human dermal endothelial cells), 5310; format: cell-based; conditions: control conditions and after radiation
Description: as §7

[20] = test system: 4910, 5310 and U87 glioma cells and MDAMB231 and ZR71 breast cancer cells; assay: Western blot analysis for pAKT and pERK (cell line not specified); format: cell-based; conditions: with and without radiation
Description: as §6

[21] = test system: K562 luc human leukemia cells; assay: Drug effectiveness (De) from in vivo luciferase studies; design: species or system nude mice
From the text: [formula] Where: • Σalive = total number of mice alive per concentration at the end of experiment times photon count, Eluc = total number of mice alive showing luciferase expression per concentration at end of experiment and c represents control untreated animals times photon count and ∑c-initial represents the initial number of animals in control at start of experiment times photon count.

[22] = test system: K562 luciferase expressing cells; assay: Leukemic survival study, K562 luciferase expressing cells implanted intraperitoneally; format: in vivo, nude mice

Cc1ccc(NC(=O)c2cccc(S(=O)(=O)C(F)(F)F)c2)cc1Nc1nccc(-c2cccnc2)n1 [AN024]
blast cell count in blood smears [1]: significant decrease in blast cell count and was superior to AN019 treatment at day 42 | +Radiation % Invasion ([2]; U87, with radiation): 29% | -Radiation % Invasion ([2]; U87, without radiation): 53% | blast cell count in blood smears [3]: significant decrease in blast cell count and was superior to AN019 treatment at day 42 | PI3k levels ([4]; ZR71 (cell line by context), with and without radiation): decrease in PI3k levels after radiation | AKT levels ([4]; ZR71, unirradiated and after radiation): did not show any significant change under unirradiated conditions, whereas after radiation AN024 treated cells showed a decrease in AKT expression | blast cell count in blood smears [5]: significant decrease in blast cell count and was superior to AN019 treatment at day 42 | animals cured / no observable intracranial tumor ([6]; with radiation (5Gy/week), terminated at day 40): 7 of 10 animals | intracranial tumours (size, appearance) ([6]; without radiation): showed presence of intracranial tumours but the tumours were well defined and not showing diffuse edges | animals cured / complete absence of intracranial tumours ([6]; without radiation, treatment from ten days after implantation, terminated at day 40): 3 of 10 animals | +Radiation % Invasion ([7]; ZR-71, with radiation): 45% | -Radiation % Invasion ([7]; ZR-71, without radiation): 48% | AKT levels [8]: decrease in AKT levels | Tp (temporal penetrance) [9]: 2.4 | +Radiation % Invasion ([10]; MDA-MB-231, with radiation): 47% | -Radiation % Invasion ([10]; MDA-MB-231, without radiation): 43% | +Radiation % Invasion ([11]; 5310, with radiation): 32% | -Radiation % Invasion ([11]; 5310, without radiation): 27% | inhibition of angiogenesis [12]: significant retardation in angiogenesis with an increase in inhibition after radiation | inhibition of angiogenesis [13]: significant inhibition of angiogenesis both with and without radiation | ERK levels [14]: slight decrease in ERK levels | +Radiation % Invasion ([15]; 4910, with radiation): 39% | -Radiation % Invasion ([15]; 4910, without radiation): 56% | inhibition of angiogenesis [16]: complete inhibition of angiogenesis | inhibition of angiogenesis [17]: only a slight inhibition was observed in control and radiation treatments | Therapeutic index-LD50/ED50 [18]: 144 | inhibition of angiogenesis [19]: inhibition of angiogenesis was seen in control conditions, whereas angiogenesis further inhibited after radiation treatment | levels of pERK [20]: reduction on pERK levels but to a lesser extent than AN019 | De (drug effectiveness) ([21]; 5mg/kg): 30.00% | De (drug effectiveness) ([21]; 10mg/kg): 85.00% | De (drug effectiveness) ([21]; 20mg/kg): 87.00% | De (drug effectiveness) ([21]; 40mg/kg): 90.00% | curative effect after withdrawal of drug treatment (animals cured at day 58) ([22]; drug treatment stopped at day 42, based on luminescence (Fig. 20)): continued to show curative effect | Blast cell count from blood smears after withdrawal of drug treatment ([22]; drug treatment withdrawn on day 42 (Fig. 21)): showed effectiveness after withdrawal of drug treatment | mortality ([22]; treatment from day 15 till day 42, then withdrawn, AN024 death determined to be other than leukemia): showed mortality on day 38 | animals showing no signs of leukemia / complete absence of leukemic symptoms ([22]; treatment from day 15 till day 42, then withdrawn, AN024 on day 55): 8 of the 10 animals
